Assay results reported in patent publication US20230381348A1, “BIFUNCTIONAL MACROCYCLIC CHELATE, CONJUGATE, METAL COMPLEX AND USE THEREOF” (Jyams Pet Research & Development Limited, priority 2021, published 2023).

What was measured:
LNCap tumor-bearing mice = assay: PET imaging after tail vein injection; format: in vivo; settings: single intravenous administration, 200 μCi
Method: (§1) Method: LNCap tumor-bearing mice were injected with the complex ^89Zr-Dar-PSMA-617 (200 μCi) prepared in Example 9 through tail vein, while dynamic scan was performed for 60 min during the administration, and static whole body scan was performed for 10 min at different time points during 2-216 h after the administration. Refer to FIG. 1 for the mouse PET scanning image.
as §1, with “complex” for “complex ^89Zr-Dar-PSMA-617”, “Example 7” for “Example 9”, “vein,” for “vein, while”, “and the” for “and”, “points of 2-192” for “points during 2-216”, “FIG. 2” for “FIG. 1”
Method: LNCap tumor-bearing mice were injected with the complex ^68Ga-Dar-PSMA-617 (200 μCi) prepared in Example 10 through tail vein, dynamic scan was performed for 60 min during the administration, and the static whole body scan was performed for 10 min at different time points of 2-6 h after the administration. Refer to FIG. 3 for the mouse PET scanning image.

[1] = format: physicochemical; settings: 48 h
Method: (§2) HPLC: standard UV peak Rt=10.548 min, radioactive peak Rt=10.809 min, corresponding to the peak position of the standard.

[2] = In vitro stability of labeled product in mouse serum (radiochemical purity after 48 h); format: in vitro ADME
Method: as §2

[3] = male, SD, rat, in vivo, iv
Method: About 0.1-0.2 mL of blood was collected from jugular vein plexus of the experimental animals at 5 min, 15 min, 30 min, 1 h, 2 h, 3 h, 4 h, 5 h, 6 h, 8 h, 12 h, 24 h, 48 h, 72 h, 96 h, 120 h, 144 h, and 168 h after the administration, and the rats were weighed for subsequent assay. Blood was collected from 6 males in each group at each time point, and 12 animals were cross-sampled. Each sample was subjected to gamma counting for 30 s.

LNCap cells [4] = assay: Experiment A cell uptake experiment (cell binding rate); format: cell-based; settings: for uptake rate of the blocking group: unlabeled ligand 200 times that of labeled subject; for uptake rate: 37° C.
Method: (§3) LNCap cells were cultured to logarithmic growth phase. After digestion with pancreatin, the resultant mixture was adjusted with complete medium into a cell suspension with a cell density of […]. Cells were inoculated in 24-well plate with 0.5-1.0 mL cells per well and the number of 1×10^5 cells per well (inoculated 2 d in advance for cell experiment). ^177Lu-Dar, ^177Lu-Dar-PSMA-617, ^177Lu-DOTA, and ^177Lu-DOTA-PSMA-617 were respectively diluted with a basic medium (with 1% HSA added) to 10 μCi/mL for subsequent use.
Unlabeled ligands Dar, DOTA, Dar-PSMA-617, and DOTA-PSMA-617 were respectively formulated to be 10 μg/mL and 25 μg/mL with basic medium (with 1% HSA added) for subsequent use.
(§4) Cells were incubated in 37° C. incubator for 1 h, 4 h, and 24 h.
Uptake experiment: blocking groups were set in cell uptake experiment, and unlabeled ligands were added in an amount of 200 times that of labeled subjects. After incubation was completed, the cell suspension was collected, followed by centrifugation at 1500 rpm for 5 min, cell pellet was collected, the supernatant was removed, the cell pellet was washed once with 0.5 mL of pre-cooled PBS, and the resultant cell pellet was collected.
(§5) Cell pellet was collected for gamma counting. Both the blank and standard tubes were assayed simultaneously in each test.
Cell binding rate=CPM of the cell lysate/CPM of the standard tube×100%

LNCap cells [5] = assay: Experiment A internalization experiment; format: cell-based
Method: as §3, §4
Internalization experiment: after incubation was completed, the cell suspension was collected, 0.5 mL of pre-cooled pickling solution was added, after incubation for 1 min at room temperature, the pickling solution was removed; and the resultant mixture was washed once with 0.5 mL of PBS, and cell pellet was collected.
as §5
Cell internalization rate=CPM of the cell lysate after acid pickling/CPM of the uptake experiment cell lysate×100%

LNCap cells [6] = assay: Experiment A efflux experiment; format: cell-based; settings: then 24 h in complete medium
Method: as §3, §4
Efflux experiment: after the incubation was completed, the cell suspension was collected, washed once with 0.5 mL of complete medium, added with 0.5 mL of complete medium, after resuspension, the resultant mixture was placed into original wells, incubated at 37° C. for 24 h, and then the supernatant was collected, and washed once with 0.5 mL of PBS. Cell pellet was collected after centrifugation of the supernatant and PBS washing solution; and 0.5 mL of 1 M lysis solution was utilized to digest and lyse cells in the original wells, and combined with the cell pellet.
as §5
Cell efflux rate=CPM of the efflux experiment cell lysate/CPM of the uptake experiment cell lysate×100%

[7] = system: LNCap tumor-bearing mice animal models; assay: ^177Lu-Dar-PSMA-617 treatment study (tumor size, body weight, clinical observation); format: in vivo
Method: LNCap tumor-bearing mice animal models were used.
Experimental Groups: • (A)^177Lu-Dar-PSMA-617 low dosage 0.25 mCi (n=7); • (B)^177Lu-Dar-PSMA-617 medium dosage 0.5 mCi (n=10); • (C)^177Lu-Dar-PSMA-617 high dosage 1 mCi (n=10).
Positive Control Groups: • (D)^177Lu-DOTA-PSMA-617 0.5 mCi (n=7); • (E)^177Lu-DOTA-PSMA-617 1 mCi (n=10).
Negative Control Groups: • (F) ^177LuCl3 1 mCi (n=10); • (G) normal saline (n=10)
Method: the day of administration was recorded as D-0, and body weight and tumor size were measured every day or every other day. After administration of ^177Lu-Dar-PSMA-617 (Group C), SPECT scan was performed at 4 h, 24 h, 72 h, 120 h, and 240 h after the administration; the control groups ^177Lu-DOTA-PSMA-617 (Group E) and ^177LuCl3 (Group F) were respectively subjected to SPECT scan at 2 h, 24 h, 72 h, and 120 h (240 h) (refer to FIG. 7, group C, group E, and group F in sequence from top to bottom). The animals were kept stationary, and CT scan was completed before/after the SPECT scan. Prior to the scan, the animals were subjected to respiratory anesthesia with isoflurane through an anesthesia machine, and the animals having undergone anesthesia induction were placed on a SPECT/CT bed. During the scan, the animals continuously inhaled isoflurane to maintain anesthesia effect. Each bed was statically scanned for 10-30 min and scan time was recorded.

[8] = system: MC38/MC38-hPDL1 bilateral tumor-bearing mice; assay: ^89Zr-Dar-KN035 PET imaging study; format: in vivo
Method: Method: MC38/MC38-hPDL1 bilateral tumor-bearing mice were injected with the ^89Zr-Dar-KN035 (100 μCi) through tail vein, wherein MC38 was a tumor low-expressing PDL1, and MC38-hPDL1 was a tumor high-expressing PDL1. Dynamic scan was performed for 60 min during the administration, and static whole body scan was performed for 10 min at different time points of 1-168 h after the administration. A mouse PET scanning image is shown in FIG. 10, with MC38 on the left and MC38-hPDL1 on the right.

## Cc1cc2c(O)c(c1)CN(CC(=O)O)Cc1cccc(n1)CN(CC(=O)NC[C@H]1CC[C@H](C(=O)N[C@@H](Cc3ccc4ccccc4c3)C(=O)NCCCC[C@H](NC(=O)N[C@@H](CCC(=O)O)C(=O)O)C(=O)O)CC1)Cc1cc(C)cc(c1O)CN(CC(=O)O)Cc1cccc(n1)CN(CC(=O)O)C2 [^89Zr-Dar-PSMA-617, metal not drawn]
LNCap tumor-bearing mice
  main distribution of radioactive substances: mainly distributed in the bladder and kidneys
[1]; normal saline, 37° C. water bath incubator
  radiochemical purity after incubation in normal saline: 98%
[1]; room temperature
  radiochemical purity after being placed at room temperature: 98%
[2]
  radiochemical purity after incubation in mouse serum: 96%
[3]
  half-life period in blood: 4.57 h

## O=C([O-])CN1CCN(CC(=O)[O-])CCN(CC(=O)[O-])CCN(CC(=O)[O-])CC1.[177Lu+3].[H+] [^177Lu-DOTA]
LNCap cells [4]; 1 h
  uptake rate of the blocking group: 0.26%
LNCap cells [4]; 1 h incubation
  uptake rate: 0.22%
LNCap cells [4]; 4 h
  uptake rate of the blocking group: 0.24%
LNCap cells [4]; 4 h incubation
  uptake rate: 0.20%
LNCap cells [4]; 24 h
  uptake rate of the blocking group: 1.97%
LNCap cells [4]; 24 h incubation
  uptake rate: 2.01%
LNCap cells [5]; 1 h incubation
  internalization rate: 35.46%
LNCap cells [5]; 4 h incubation
  internalization rate: 165.46%
LNCap cells [5]; 24 h incubation
  internalization rate: 8.33%
LNCap cells [6]; 1 h incubation
  efflux rate: 76.83%
LNCap cells [6]; 4 h incubation
  efflux rate: 63.22%
LNCap cells [6]; 24 h incubation
  efflux rate: 9.38%

## [177Lu+3].[Cl-].[Cl-].[Cl-] [^177LuCl3]
[7]; 1 mCi (Group C, Group F)
  body weight change: decrease rapidly
[7]; 1 mCi (Group F)
  adverse effects (conclusion): severe adverse effects
  gross anatomy of dead mice: skeletal darkening and blood stasis of bone marrow
[7]; 1 mCi (Group F), starting from D-5, all animals at the later stage
  animal clinical observation: weight loss and arched back

B1: ^89Zr-Dar-KN035 (conjugate, chains of the INN, looked up)
VH: QVQLVESGGGLVQPGGSLRLSCAASGKMSSRRCMAWFRQAPGKERERVAKLLTTSGSTYLADSVKGRFTISRDNSKNTVYLQMNSLRAEDTAVYYCAADSFEDPTCTLVTSSGAFQYWGQGTLVTVSS
modifications: 89Zr with Dar chelator
[8]; 100 μCi tail vein, PET 1-168 h
  uptake in tumor high-expressing PDL1 (MC38-hPDL1): significantly taken up
  uptake in tumor low-expressing PDL1 (MC38): almost not taken up
[8]; MC38-hPDL1 versus MC38
  tumor selectivity: good tumor selectivity
